Tested on: human IgG in mouse serum
Experiment: Immunoglobulin G (IgG) mRNA in vivo evaluation using lipid nanoparticle compositions
Parameters: species or system mice
Details: LNP-formulated lipid, tail vein injection, μg IgG/mL serum 24 hours after administration; for Serum IgG @ 0.3 mg/kg: 0.3 mg mRNA/kg; for Serum IgG @ 1.0 mg/kg: 1.0 mg mRNA/kg
Method: A lipid of structure (I), DSPC, cholesterol and PEG-lipid are solubilized in ethanol at a molar ratio of 50:10:38.5:1.5 or 47.5:10:40.7:1.8. Lipid nanoparticles (LNP) are prepared at a total lipid to mRNA weight ratio of approximately 10:1 to 40:1. Briefly, the mRNA is diluted to 0.2 mg/mL in 10 to 50 mM citrate buffer, pH 4 to 6 or 10 to 25 mM acetate buffer, pH 4 to 6. Syringe pumps are used to mix the ethanolic lipid solution with the mRNA aqueous solution at a ratio of about 1:5 to 1:3 (vol/vol) with total flow rates above 15 mL/min. The ethanol is then removed, and the external buffer replaced with PBS by dialysis. Finally, the lipid nanoparticles are filtered through a 0.2 µm pore sterile filter.
Studies are performed in 6-8-week-old CD-1/ICR mice (Envigo, Charles River, or Inotiv) according to guidelines established by an institutional animal care committee (ACC) and the Canadian Council on Animal Care (CCAC). Varying doses of mRNA-lipid nanoparticle are systemically administered by tail vein injection and animals euthanized at a specific time point (e.g., 24 hours) post-administration. The whole blood is collected, and the serum subsequentially separated by centrifuging the tubes of the whole blood at 2000×g for 10 minutes at 4° C. and stored at −80° C. until use for analysis.
For immunoglobulin G (IgG) ELISA (Life Diagnostics Human IgG ELISA kit), the serum samples are diluted at 100 to 20,000 folds with 1× diluent solution. 100 μL of diluted serum is dispensed into anti-human IgG coated 96-well plate in duplicate alongside human IgG standards and incubated in a plate shaker at 150 rpm at 25° C. for 45 minutes. The wells are washed 5 times with 1× wash solution using a plate washer (400 μL/well). 100 μL of HRP conjugate is added into each well and incubated in a plate shaker at the same condition above. The wells are washed 5 times again with 1× wash solution using a plate washer (400 μL/well). 100 μL of TMB reagent is added into each well and incubated in a plate shaker at the same condition above. The reaction is stopped by adding 100 μL of Stop solution to each well. The absorbance is read at 450 nm (A450) with a microplate reader. The amount of human IgG in mouse serum is determined by plotting A450 values for the assay standard against human IgG concentration.
Representative compounds of the disclosure shown in Table 2 were formulated using the following molar ratio: 50% cationic lipid/10% distearoylphosphatidylcholine (DSPC)/38.5% Cholesterol/1.5% PEG lipid 2-[2-(ω-methoxy(polyethyleneglycol2000)ethoxy]-N,N-ditetradecylacetamide) or 47.5% cationic lipid/10% DSPC/40.7% Cholesterol/1.8% PEG lipid. Relative activity was determined by measuring luciferase expression in the liver 4 hours following administration via tail vein injection as described in Example 1 or by measuring the amount of human IgG in mouse serum as described in example 2. The activity was compared at a dose of 1.0 or 0.5 or 0.3 mg mRNA/kg and expressed as ng luciferase/g liver measured 4 hours after administration, as described in Example 1 or as μg IgG/mL serum measured 24 hours after administration, as described in Example 2. Compound numbers in Table 2 refer to the compound numbers of Table 1.

| SMILES | Serum IgG @ 0.3 mg/kg | Serum IgG @ 1.0 mg/kg |
| --- | --- | --- |
| CCCCCCCCCCN(CCCCCCCCN(CCCCCCCC(=O)N(CCCCCCCCCC)CCCCCCCCCC)[C@H]1CC[C@H](O)CC1)C(=O)CCCCCCCCC [(1R, 4R) I-47, N-decyl-N-(8-((8-(didecylamino)-8-oxooctyl)((1r,4r)-4-hydroxycyclohexyl)amino)octyl)decanamide] | 16.24 ± 2.93 µg/mL |  |
| CCCCCCCCCCN(CCCCCCCCCC)C(=O)CCCCCCCN(CCCCCCCC(=O)N(CCCCCCCCCC)CCCCCCCCCC)CC1CCC(O)C1 (centres unmarked) [Compound I-4, 8,8′-(((3-hydroxycyclopentyl)methyl)azanediyl)bis(N,N-didecyloctanamide)] | 32.39 ± 3.12 µg/mL | 155.20 ± 15.34 µg/mL |
| CCCCCCCCCCN(CCCCCCCCCC)C(=O)CCCCCCCN(CCCCCCCC(=O)N(CCCCCCCCCC)CCCCCCCCCC)C[C@H]1C[C@H]1CO (racemic) [(rac)-(1RS, 2SR) I-45, 8,8′-((((1s,2r)-2-(hydroxymethyl)cyclopropyl)methyl)azanediyl)bis(N,N-didecyloctanamide)] | 15.84 ± 3.20 µg/mL |  |
| CCCCCCCCCCN(CCCCCCCCCC)C(=O)CCCCCCCN(CCCCCCCC(=O)N(CCCCCCCCCC)CCCCCCCCCC)[C@H]1C[C@@H](CO)C1 [(1S, 3S) I-24, 8,8′-(((1S,3S)-3-(hydroxymethyl)cyclobutyl)azanediyl)bis(N,N-didecyloctanamide)] | 20.09 ± 5.90 µg/mL | 57.71 ± 10.58 µg/mL |
| C=CCCCCCCCCN(CCCCCCCCC=C)C(=O)CCCCCCCN(CCCCCCCC(=O)N(CCCCCCCCC=C)CCCCCCCCC=C)[C@H]1CC[C@@H](O)CC1 [(1S, 4S) I-53, 8,8′-(((1s,4s)-4-hydroxycyclohexyl)azanediyl)bis(N,N-di(dec-9-en-1-yl)octanamide)] | 81.56 ± 44.40 µg/mL |  |
| CCCCCCCCCCN(CCCCCCCCCC)C(=O)CCCCCCCN(CCCCCCCC(=O)N(CCCCCCCCCC)CCCCCCCCCC)[C@H]1CC[C@@H](CO)CC1 [(1S, 4S) I-23, 8,8′-(((1S,4S)-4-(hydroxymethyl)cyclohexyl)azanediyl)bis(N,N-didecyloctanamide)] | 34.48 ± 9.25 µg/mL | 273.72 ± 52.70 µg/mL |
| CCCCCCCCCCCCN(CCCCCC)C(=O)CCCCCCCN(CCCCCCCC(=O)N(CCCCCC)CCCCCCCCCCCC)[C@H]1CC[C@@H](O)CC1 [(1S, 4S) I-52] | 40.24 ± 18.53 µg/mL |  |
| CCCCCCCCCC(CCCCCCCCC)NC(=O)CCCCCCCN(CCCCCCCC(=O)NC(CCCCCCCCC)CCCCCCCCC)[C@H]1CC[C@@H](O)CC1 [(1S, 4S) I-50, 8,8′-(((1s,4s)-4-hydroxycyclohexyl)azanediyl)bis(N-(nonadecan-10-yl)octanamide)] | 29.82 ± 7.79 µg/mL |  |
| CCCCCCCCCCN(CCCCCCCCN(CCCCCCCCN(CCCCCCCCCC)C(=O)CCCCCCCCC)C[C@H]1C[C@H](O)C1)C(=O)CCCCCCCCC [(1R, 3R) I-22, N,N′-(((((1R,3R)-3-hydroxycyclobutyl)methyl)azanediyl)bis(octane-8,1-diyl))bis(N-decyldecanamide)] | 19.88 ± 2.53 µg/mL |  |
| CCCCCCCCCCN(CCCCCCCCCC)C(=O)CCCCCCCN(CCCCCCCC(=O)N(CCCCCCCCCC)CCCCCCCCCC)[C@H]1CC[C@](C)(O)CC1 [(1R, 4R) I-25, 8,8′-(((1R,4R)-4-hydroxy-4-methylcyclohexyl)azanediyl)bis(N,N-didecyloctanamide)] | 14.03 ± 2.71 µg/mL | 105.77 ± 19.44 µg/mL |
| CCCCCCCCCCCCN(CCCCCCCC)C(=O)CCCCCCCN(CCCCCCCC(=O)N(CCCCCCCC)CCCCCCCCCCCC)[C@H]1CC[C@@H](O)CC1 [(1S, 4S) I-62, 8,8′-(((1s,4s)-4-hydroxycyclohexyl)azanediyl)bis(N-dodecyl-N-octyloctanamide)] | 48.49 ± 8.83 µg/mL |  |
| CCCCCCCCCCN(CCCCCCCCCC)C(=O)CCCCCCCN(CCCCCCCC(=O)N(CCCCCCCCCC)CCCCCCCCCC)[C@@H]1CCC[C@@H]1O [(1R, 2S) I-48, 8,8′-(((1r,2s)-2-hydroxycyclopentyl)azanediyl)bis(N,N-didecyloctanamide)] | 28.32 ± 8.81 µg/mL |  |
| CCCCCCCCCCN(CCCCCCCCCC)C(=O)CCCCCCCN(CCCCCCCC(=O)N(CCCCCCCCCC)CCCCCCCCCC)[C@@H]1CCC[C@H]1O [(1R, 2R) I-48, 8,8′-(((1r,2r)-2-hydroxycyclopentyl)azanediyl)bis(N,N-didecyloctanamide)] | 25.27 ± 7.50 µg/mL | 92.5 ± 20.18 µg/mL |
| CCCCCCCCCCCCN(CCCCCC)C(=O)CCCCCCCN(CCCCCCCC(=O)N(CCCCCCCCCC)CCCCCCCCCC)[C@H]1CC[C@@H](O)CC1 [(1S, 4S) I-56, N,N-didecyl-8-((8-(dodecyl(hexyl)amino)-8-oxooctyl)((1s,4s)-4-hydroxycyclohexyl)amino)octanamide] | 52.9 ± 17.00 µg/mL |  |
| C=CCCCCCCCCN(CCCCCCCCCC)C(=O)CCCCCCCN(CCCCCCCC(=O)N(CCCCCCCCC=C)CCCCCCCCCC)[C@H]1CC[C@@H](O)CC1 [(1S, 4S) I-51, 8,8′-(((1s,4s)-4-hydroxycyclohexyl)azanediyl)bis(N-(dec-9-en-1-yl)-N-decyloctanamide)] | 80.37 ± 26.77 µg/mL |  |
| C=CCCCCCCCCN(CCCCCCCCC=C)C(=O)CCCCCCCN(CCCCCCCC(=O)N(CCCCCCCCCC)CCCCCCCCCC)[C@H]1CC[C@@H](O)CC1 [(1S, 4S) I-57, N,N-di(dec-9-en-1-yl)-8-((8-(didecylamino)-8-oxooctyl)((1s,4s)-4-hydroxycyclohexyl)amino)octanamide] | 84.4 ± 35.10 µg/mL |  |
| CCCCCCCCCCN(CCCCCCCCCC)C(=O)CCCCCCCN(CCCCCCCC(=O)N(CCCCCCCCCC)CCCCCCCCCC)C1CC2(CC(O)C2)C1 (centres unmarked) [Compound I-36, 8,8′-((6-hydroxyspiro[3.3]heptan-2-yl)azanediyl)bis(N,N-didecyloctanamide)] | 25.76 ± 8.65 µg/mL | 171.89 ± 45.93 µg/mL |
| CCCCCCCCCCN(CCCCCCCCCC)C(=O)CCCCCCCN(CCCCCCCC(=O)N(CCCCCCCCCC)CCCCCCCCCC)[C@H]1C[C@H](O)C1 [(1R, 3R) I-5, 8,8′-(((1R,3R)-3-hydroxycyclobutyl)azanediyl)bis(N,N-didecyloctanamide)] | 44.52 ± 9.89 µg/mL | 215.61 ± 28.80 µg/mL |
| CCCCCCCCCCN(CCCCCCCCCC)C(=O)CCCCCCCN(CCCCCCCC(=O)N(CCCCCCCCCC)CCCCCCCCCC)[C@H]1CC[C@H](CO)CC1 [(1R, 4R) I-23, 8,8′-(((1R,4R)-4-(hydroxymethyl)cyclohexyl)azanediyl)bis(N,N-didecyloctanamide)] | 5.15 ± 1.83 µg/mL | 37.79 ± 6.41 µg/mL |
| CCCCCCCCCCN(CCCCCCCCN(CCCCCCCCN(CCCCCCCCCC)C(=O)CCCCCCCCC)[C@H]1CC[C@@H](O)CC1)C(=O)CCCCCCCCC [(1S, 4S) I-63, N,N′-((((1s,4s)-4-hydroxycyclohexyl)azanediyl)bis(octane-8,1-diyl))bis(N-decyldecanamide)] | 39.32 ± 8.99 µg/mL |  |
| CCCCCCCCCCN(CCCCCCCCCC)C(=O)C(F)CCCCCCN(CCCCCCC(F)C(=O)N(CCCCCCCCCC)CCCCCCCCCC)[C@H]1CC[C@H](O)CC1 (stereo partly drawn) [(1R, 4R) I-49, 8,8′-(((1r,4r)-4-hydroxycyclohexyl)azanediyl)bis(N,N-didecyl-2-fluorooctanamide)] | 28.94 ± 13.21 µg/mL | 161.09 ± 11.20 µg/mL |
| CCCCCCCCCCN(CCCCCCCCCC)C(=O)CCCCCCCN(CCCCCCCC(=O)N(CCCCCCCCCC)CCCCCCCCCC)[C@H]1C[C@H](O)C[C@H](O)C1 [(1s, 3R, 5S) I-34, 8,8′-(((1s,3r,5s)-3,5-dihydroxycyclohexyl)azanediyl)bis(N,N-didecyloctanamide)] | 7.06 ± 4.68 µg/mL | 57.07 ± 24.86 µg/mL |
